Measurements from patent publication US11001583B2, “Dihydropyrrolopyridine inhibitors of ROR-gamma” (Vitae Pharmaceuticals, LLC, priority 2014, dated 2021).

What was measured:
[1] = tested on: IL-17A production; assay: Human Whole Blood Assay (Assay 3); type: cell-based; conditions: IL-17A secretion, 50% blood/media
Method: Human Whole Blood Assay (Assay 3)
Compounds of the invention were tested in the human whole blood assay to measure their effects on IL-17A production as determined by cytokine secretion into 50% blood/media supernatant. Mixtures of sodium heparinized whole blood (isolated from healthy human donors) and the T cell activator CytoStim, in the presence or absence of compound, were plated in sterilized, tissue culture-treated 24-well plates. Specifically, the mixtures in each well were as follows: (1) 500 μL of whole blood, (2) 250 μL of compound diluted into RPMI-1640 media containing 10% HyClone™ FCS (Thermo Fisher Scientific, Waltham, Mass.), Gibco® Pen/Strep and Gibco® NEAA (Life Technologies, Grand Island, N.Y.), and (3) 250 μL, of CytoStim (Miltenyi Biotech, Germany) diluted to a final concentration of 10 μL/mL in complete cell culture medium.
Mixtures were incubated at 37° C./5% CO2 for 48 h, after which, 200 μL of clean supernatant (i.e., no red blood cells) from each well was transferred to a well in a 96-well plate. IL-17A cytokine expression was determined using 25 μL of the transferred supernatant diluted with 25 μL of Diluent 43 from the Human IL-17A V-PLEX™ kit (cat. #K151RFD-4, Meso Scale Discovery, Rockville, Md.). The assay was performed according to the manufacturer's instructions using included reagents. The IL-17A V-PLEX™ plates were read using the Meso Scale Discovery Imager (Model 1200). The levels of IL-17A were extrapolated from a standard curve using a four-parameter non-linear fitting model and expressed as pg/mL. These values were regressed against concentrations of the tested compounds to derive IC50 values using a four-parameter non-linear fitting model.

[2] = biological target: hERG (human ether-à-go-go-related gene) potassium ion channel (Homo sapiens (Human), UniProt Q12809); assay: hERG Assay (Assay 4); type: cell-based; conditions: patch clamp, HEK 293 cells
Chain of hERG (human ether-à-go-go-related gene) potassium ion channel (Q12809 whole entry): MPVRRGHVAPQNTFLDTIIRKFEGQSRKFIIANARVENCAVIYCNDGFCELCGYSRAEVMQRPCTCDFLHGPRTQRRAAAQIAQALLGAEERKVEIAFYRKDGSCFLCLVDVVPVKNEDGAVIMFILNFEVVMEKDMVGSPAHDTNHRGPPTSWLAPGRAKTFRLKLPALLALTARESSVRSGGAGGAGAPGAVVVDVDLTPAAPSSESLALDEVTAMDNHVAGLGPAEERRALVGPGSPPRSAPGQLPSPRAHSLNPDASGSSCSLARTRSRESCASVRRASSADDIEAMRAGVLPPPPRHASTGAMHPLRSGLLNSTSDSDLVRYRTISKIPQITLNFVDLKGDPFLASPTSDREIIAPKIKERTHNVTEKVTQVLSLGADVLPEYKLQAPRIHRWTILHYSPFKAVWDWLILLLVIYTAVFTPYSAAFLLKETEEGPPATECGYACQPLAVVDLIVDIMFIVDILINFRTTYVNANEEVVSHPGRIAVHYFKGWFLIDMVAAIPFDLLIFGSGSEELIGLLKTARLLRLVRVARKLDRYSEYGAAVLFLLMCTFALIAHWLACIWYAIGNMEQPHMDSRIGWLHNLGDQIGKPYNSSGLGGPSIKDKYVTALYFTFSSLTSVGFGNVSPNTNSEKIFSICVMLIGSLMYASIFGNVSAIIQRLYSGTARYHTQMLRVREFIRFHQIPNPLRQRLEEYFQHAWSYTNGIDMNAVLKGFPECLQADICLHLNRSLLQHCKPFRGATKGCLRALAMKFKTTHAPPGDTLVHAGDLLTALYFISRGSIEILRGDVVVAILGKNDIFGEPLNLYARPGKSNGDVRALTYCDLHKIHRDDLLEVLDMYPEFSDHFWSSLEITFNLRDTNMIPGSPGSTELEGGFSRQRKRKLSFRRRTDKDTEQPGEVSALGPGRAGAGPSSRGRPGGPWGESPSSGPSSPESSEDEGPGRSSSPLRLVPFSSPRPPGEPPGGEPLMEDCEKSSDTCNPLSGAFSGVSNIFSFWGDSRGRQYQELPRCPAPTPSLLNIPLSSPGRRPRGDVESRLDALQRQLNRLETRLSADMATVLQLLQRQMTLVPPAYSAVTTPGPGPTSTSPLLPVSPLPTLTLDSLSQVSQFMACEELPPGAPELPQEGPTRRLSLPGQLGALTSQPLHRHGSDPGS
Method: Compounds of the invention were tested in vitro against the hERG (human ether-à-go-go-related gene) potassium ion channel (a surrogate for IKr, the rapidly activating delayed rectifier cardiac potassium ion channel).
The buffer was HEPES-buffered physiological saline (HB-PS) solution composed of: 137 mM NaCl, 4.0 mM KCl, 1.8 mM CaCl2, 1 mM MgCl2, 10 mM HEPES, 10 mM glucose, pH adjusted to 7.4 with NaOH, and 0.3% DMSO. Chemicals used in solution preparation were purchased from Sigma-Aldrich (St. Louis, Mo.), unless otherwise noted, and were of ACS reagent grade purity or higher.
HEK (human embryonic kidney) 293 cells were stably transfected with hERG cDNA.
For the patch clamp experiment, onset and steady state inhibition of hERG potassium current was measured using a pulse pattern with fixed amplitudes (depolarization: +20 mV for 2 s; repolarization: −50 mV for 2 s) repeated at 10 s intervals from a holding potential of −80 mV. Peak tail current was measured during the 2 s step to −50 mV. A steady state was maintained for at least 30 seconds before applying compound or positive control (cisapride). Peak tail currents were measured until a new steady state was achieved.
Data acquisition and analyses were performed using the suite of pCLAMP® (ver. 8.2) programs (MDS Analytical Technologies, Sunnyvale, Calif.). Steady state was defined by the limiting constant rate of change with time (linear time dependence). The steady state before and after each compound application was used to calculate the percentage of current inhibited at each concentration.
Concentration-response data were fit to an equation of the following form: % Inhibition={1−1/[1+([Test]/IC50)N]}*100
where [Test] was the compound concentration, IC50 was the compound concentration at half-maximal inhibition, N was the Hill coefficient, and % Inhibition was the percentage of current inhibited at each compound concentration. Nonlinear least squares fits were solved with the Solver add-in for Excel 2003 (Microsoft, Wash.) and the IC50 was calculated.

[3] = biological target: recombinant RORγ Ligand Binding Domain (LBD) protein (Homo sapiens (Human), UniProt P51449); assay: Radio-Ligand RORγ Binding Assay (Assay 1); conditions: competition with 25-hydroxy [26,27-3H]-cholesterol, SPA; read-out: RORγ Binding Ki Range (nM) (Assay 1)
Chain of recombinant RORγ Ligand Binding Domain (LBD) protein (P51449 269-508): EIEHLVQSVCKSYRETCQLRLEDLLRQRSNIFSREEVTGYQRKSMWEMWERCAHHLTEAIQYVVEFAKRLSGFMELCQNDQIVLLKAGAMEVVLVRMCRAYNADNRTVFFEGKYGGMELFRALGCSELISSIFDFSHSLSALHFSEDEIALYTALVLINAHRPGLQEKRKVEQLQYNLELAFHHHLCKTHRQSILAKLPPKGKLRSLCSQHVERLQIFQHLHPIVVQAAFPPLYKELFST
Method: Radio-Ligand RORγ Binding Assay (Assay 1)
Compounds of the present invention were tested for ability to bind to RORγ in a cell-free competition assay with commercially available radio-ligand (RL), 25-hydroxy [26,27-^3H]-cholesterol (PerkinElmer, Cat. #NET674250UC), for a ligand binding site on a recombinant RORγ Ligand Binding Domain (LBD) protein expressed as a 6×His-Glutathione-S-Transferase (GST) fusion. […] The plate was shaken at 700 rpm for 20 min and incubated for 10 min at rt, after which 40 μL of poly-Lys YSi SPA beads (PerkinElmer, Cat. #RPNQ0010) were added to achieve 50 μg of the beads per well. The plate was incubated on an orbital shaker for 20 min and then for 10 min without agitation at rt. SPA signal for tritium beta radiation was registered on PerkinElmer Microbeta plate reader. […] The percent inhibition vs. concentration data were fit into a four-parameter model, and IC50 values were calculated from the fit as the concentrations corresponding to the inflection points on the dose-response curves.

[4] = biological target: full-length RORγt (Homo sapiens (Human), UniProt P51449); assay: RORγt 5×RORE Assay in Jurkat Cells (Assay 2); type: cell-based; conditions: 5×RORE luciferase reporter, read-out: RORγt5X IC50 Range (nM) (Assay 2)
Chain of full-length RORγt (P51449 other isoform, or with tags, fused parts or gaps): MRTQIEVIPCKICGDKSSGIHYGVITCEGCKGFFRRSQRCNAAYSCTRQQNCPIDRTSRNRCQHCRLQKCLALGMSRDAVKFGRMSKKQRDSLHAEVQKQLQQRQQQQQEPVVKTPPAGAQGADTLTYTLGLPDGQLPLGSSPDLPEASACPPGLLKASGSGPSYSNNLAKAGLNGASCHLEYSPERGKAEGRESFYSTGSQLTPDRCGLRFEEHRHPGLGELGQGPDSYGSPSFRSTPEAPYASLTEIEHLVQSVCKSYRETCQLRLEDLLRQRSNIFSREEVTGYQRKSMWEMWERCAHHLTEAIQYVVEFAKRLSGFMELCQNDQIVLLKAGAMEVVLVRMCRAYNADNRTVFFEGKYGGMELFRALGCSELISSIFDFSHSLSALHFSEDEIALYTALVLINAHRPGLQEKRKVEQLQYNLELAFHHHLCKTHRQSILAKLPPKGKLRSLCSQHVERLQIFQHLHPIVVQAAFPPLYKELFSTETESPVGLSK
Method: RORγt 5×RORE Assay in Jurkat Cells (Assay 2)
Compounds of the present invention were tested for RORγ inverse agonist activity in a cell-based, transcriptional activity assay. […] (Promega, Cat. #N1021) using KpnI and HindIII restriction sites. […] Tested compounds were added to the cells in the same media (final concentration of DMSO was 0.1% (v/v)), and the plates were incubated at 37° C./5% CO2 for 16-18 hr. Luciferase activity in the conditioned supernatants was determined with NanoGlo® assay reagents (Promega, Cat. #N1130).

| IC50 ([1]; CytoStim, 48 h) | SMILES | hERG Assay (Compound at 3 μM) % Inhibition (Assay 4) [2] | other results |
| --- | --- | --- | --- |
| < 100 nM | CCS(=O)(=O)c1ccc([C@H](COC)NC(=O)c2cnc3c(c2)CN(C[C@H]2CC[C@H](C(F)(F)F)CC2)[C@H]3C(C)C)cc1 [Compound 15] | 50% |  |
|  | CCS(=O)(=O)c1ccc(CNC(=O)c2cnc3c(c2)CN(C[C@H]2CC[C@H](C(F)(F)F)CC2)[C@H]3C(C)C)cc1 |  | hERG Assay (Compound at 3 μM) % Inhibition (Assay 4) ([2]; comparator compounds): 57.0% |
| < 100 nM | CC[C@H]1c2ncc(C(=O)N[C@@H](COC)c3ccc(S(=O)(=O)CC)cc3)cc2CN1C[C@@H]1CC[C@@H](C(F)(F)F)OC1 (single isomer, unassigned) [Compound 4] |  |  |
| 100 to 200 nM | CCS(=O)(=O)c1ccc([C@@H](COC(N)=O)NC(=O)c2cnc3c(c2)CN(C[C@H]2CC[C@H](C(F)(F)F)CC2)[C@H]3C(C)C)cc1 [Compound 12] | 38.8% |  |
|  | CCS(=O)(=O)c1ccc(CNC(=O)c2cnc3c(c2)CN(C[C@H]2CC[C@H](C(F)(F)F)CC2)[C@H]3C(C)C)nc1 |  | IC50 ([1]; comparator compounds): > 200 nM; hERG Assay (Compound at 3 μM) % Inhibition (Assay 4) ([2]; comparator compounds): 45.4% |
| < 100 nM | CC[C@H]1c2ncc(C(=O)N[C@@H](COC)c3ccc(S(=O)(=O)CC)cc3)cc2CN1C[C@H]1CC[C@H](C(F)(F)F)OC1 (single isomer, unassigned) [Compound 3] | 24.3% |  |
|  | CC[C@H]1c2ncc(C(=O)N[C@@H](COC)c3ccc(S(=O)(=O)CC)cc3)cc2CN1C[C@H]1CC[C@H](C(F)(F)F)CC1 [Compound 1, (S)-7-ethyl-N—((R)-1-(4-(ethylsulfonyl)phenyl)-2-methoxyethyl)-6-((trans-4-(trifluoromethyl)cyclohexyl)methyl)-6,7-dihydro-5H-pyrrolo[3,4-b]pyridine-3-carboxamide] | 24.3% |  |
|  | CCOC[C@H](NC(=O)c1cnc2c(c1)CN(C[C@H]1CC[C@H](C(F)(F)F)CC1)[C@H]2C(C)C)c1ccc(S(=O)(=O)CC)cc1 [Compound 7] |  | Ki [3]: < 100 nM; IC50 [4]: 100 to 1000 nM |
|  | CC[C@H]1c2ncc(C(=O)N[C@@H](COC(N)=O)c3ccc(S(=O)(=O)CC)cc3)cc2CN1C[C@H]1CC[C@H](C(F)(F)F)CC1 [Compound 2, (R)-2-((S)-7-ethyl-6-((trans-4-(trifluoromethyl)cyclohexyl)methyl)-6,7-dihydro-5H-pyrrolo[3,4-b]pyridine-3-carboxamido)-2-(4-(ethylsulfonyl)phenyl)ethyl Carbamate] | 38.8% |  |
